From patent publication US20240384268A1, “Oligonucleotides” (Hudson Institute of Medical Research, priority 2021, published 2024) come the findings set out here.

For the data set, the target named is cGAS (Homo sapiens, UniProt Q8N884). As to the kind of experiment: ISD70-driven IP-10 (and IFN-β) production in THP-1 cells, ELISA. In kind it is cell-based. On the set-up: endogenous in cells; host or cells: THP-1 (undifferentiated). The settings on record: for cGAS 100 nM (averaged IP-10 level relative to ISD70 condition): ASO 100 nM, relative to ISD70 only, given as fraction; for IFN-β production after ISD70 transfection: reduction: 125 nM oligonucleotide 6 h, ISD70 overnight; for IC50: 6 h pre-treatment, ISD70 2.5 μg/ml overnight (FIG. 3A), read-out: IC50 (IP-10 production after ISD70 transfection); for inhibition of ISD70-driven IP-10 production (in words): 2′OMe or PS oligos, 100-250 nM, pre-treatment as in figure legends, ISD70 2.5 μg/ml. (In general: An ELISA detects its analyte on a solid surface through an enzyme-linked reagent.)
cGAS, sequence (Q8N884 whole entry): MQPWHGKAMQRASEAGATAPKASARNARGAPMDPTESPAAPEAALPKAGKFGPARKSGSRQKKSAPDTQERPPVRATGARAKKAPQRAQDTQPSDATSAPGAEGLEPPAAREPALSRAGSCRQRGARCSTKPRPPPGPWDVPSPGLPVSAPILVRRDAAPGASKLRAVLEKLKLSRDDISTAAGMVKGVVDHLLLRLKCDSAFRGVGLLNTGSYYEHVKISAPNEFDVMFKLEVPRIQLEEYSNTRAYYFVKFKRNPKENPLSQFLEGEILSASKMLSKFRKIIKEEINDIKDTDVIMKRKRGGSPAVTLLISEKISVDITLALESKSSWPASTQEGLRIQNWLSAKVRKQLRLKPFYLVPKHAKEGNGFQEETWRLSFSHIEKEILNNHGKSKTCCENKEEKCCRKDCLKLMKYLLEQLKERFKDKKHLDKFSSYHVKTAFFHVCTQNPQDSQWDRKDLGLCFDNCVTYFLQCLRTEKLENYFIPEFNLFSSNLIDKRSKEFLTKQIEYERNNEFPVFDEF

Where two headings read alike, the source gives them in different places. In the oligonucleotide strings, read from the 5' end, every base follows the letter of its sugar. An asterisk marks phosphorothioate; unmarked linkages are phosphodiester. Other units and linkages are bracketed, terminal groups are in braces. A string of capitals states the bases alone. d = 2'-deoxy (DNA); m = 2'-O-methyl

As for “GGTTACGGCTCAGTAT (antisense; LNA-modified, pattern not given here) [CAMSAP1-4295 LNA KL]”, the “cGAS 100 nM (averaged IP-10 level relative to ISD70 condition)” value came out at 0.661.

On to “GGCTGGAATCCGAGTT (antisense; LNA-modified, pattern not given here) [EGFR-4705 LNA KL]”, for which the “cGAS 100 nM (averaged IP-10 level relative to ISD70 condition)” value is on record as 0.592.

For “T*T*A* G*G*G* T*T*A* G*G*G* T*T*A* G*G*G* T*T*A* G*G*G [A151, reference compound]”, where the note is “THP-1”, the “IFN-β production after ISD70 transfection: reduction” value is around 50% and the half-inhibitory concentration (IC50) came out at 0.165 µM.

As for “GTCTTGGCTTCGTGGA (antisense; LNA-modified, pattern not given here) [MB21D1-522 LNA V1]”, the “cGAS 100 nM (averaged IP-10 level relative to ISD70 condition)” value is 0.620.

As to “GCATCCACCACGTCGT (antisense; LNA-modified, pattern not given here) [EGFR-3267 LNA V1]”, the “cGAS 100 nM (averaged IP-10 level relative to ISD70 condition)” value came out at 0.602.

“TCCAACACTTCGTGGG (antisense; LNA-modified, pattern not given here) [HPRT LNA-669 V1]”: the “cGAS 100 nM (averaged IP-10 level relative to ISD70 condition)” value is 0.539.

For “GTGTCTGGAAGCTTCC (antisense; LNA-modified, pattern not given here) [CTNN2B-809 LNA V1]”, the “cGAS 100 nM (averaged IP-10 level relative to ISD70 condition)” value came out at 0.482. Besides, the “inhibition of cGAS in THP-1, LNA and MOE ASO validation (in words)” value (THP-1, 300 nM LNA or 200 nM MOE ASO ~30 min, ISD70 overnight (FIG. 21, 23)) is “potently inhibited signalling”.

Turning to “CCATCCATGAGGTCCT (antisense; LNA-modified, pattern not given here) [CTNN2B-2545 LNA V1]”, the “cGAS 100 nM (averaged IP-10 level relative to ISD70 condition)” value is reported as 0.533.

As for “TGCACACTTCGTACCC (antisense; LNA-modified, pattern not given here) [CAMSAP1-4916 LNA V1]”, the “cGAS 100 nM (averaged IP-10 level relative to ISD70 condition)” value is listed as 0.572.

As for “GTCCCCTGTTGACTGG (antisense; LNA-modified, pattern not given here) [HPRT LNA-489 KL]”, the “cGAS 100 nM (averaged IP-10 level relative to ISD70 condition)” value is given as 0.606.

In the case of “ACACTTCGTGGGGTCC (antisense; LNA-modified, pattern not given here) [HPRT LNA-665 V1]”, the “cGAS 100 nM (averaged IP-10 level relative to ISD70 condition)” value amounted to 0.516.

On to “GATAGCACCTTCAGCA (antisense; LNA-modified, pattern not given here) [CTNN2B-1294 LNA KL]”, for which the “cGAS 100 nM (averaged IP-10 level relative to ISD70 condition)” value was determined as 0.436.

Take “TTTTGGCTGGGATCAA (antisense; LNA-modified, pattern not given here) [CAMSAP1-4697 LNA KL]”: the “cGAS 100 nM (averaged IP-10 level relative to ISD70 condition)” value is 0.590.

For the substance “GCAGGCTCAGTGATGT (antisense; LNA-modified, pattern not given here) [CTNN2B-1642 LNA V1]”, the “cGAS 100 nM (averaged IP-10 level relative to ISD70 condition)” value came out at 0.458.

For “TCGTAGTTGCTTCCTA (antisense; LNA-modified, pattern not given here) [MB21D1-1181 LNA KL]”, the “cGAS 100 nM (averaged IP-10 level relative to ISD70 condition)” value worked out at 0.610.

Regarding “GCCATCCACTTGATAG (antisense; LNA-modified, pattern not given here) [EGFR-2874 LNA V1]”, the “cGAS 100 nM (averaged IP-10 level relative to ISD70 condition)” value came to 0.688.

Take “GCCATGCTGGCTCGGA (antisense; LNA-modified, pattern not given here) [CAMSAP1-2584 LNA V1]”: the “cGAS 100 nM (averaged IP-10 level relative to ISD70 condition)” value stood at 0.599.

Regarding “CAACACTTCGTGGGGT (antisense; LNA-modified, pattern not given here) [HPRT LNA-667 V1]”, the “cGAS 100 nM (averaged IP-10 level relative to ISD70 condition)” value is 0.675.

In the case of “GTATCGAAAGAGTCTG (antisense; LNA-modified, pattern not given here) [EGFR-3908 LNA KL]”, the “cGAS 100 nM (averaged IP-10 level relative to ISD70 condition)” value was found to be 0.609.

With “TGGCCTCCCATCTCCT (antisense; LNA-modified, pattern not given here) [HPRT LNA-329 V1]”, the “cGAS 100 nM (averaged IP-10 level relative to ISD70 condition)” value was found to be 0.494.

For “GTTCAGTCCTGTCCAT (antisense; LNA-modified, pattern not given here) [HPRT LNA-292 V1]”, the “cGAS 100 nM (averaged IP-10 level relative to ISD70 condition)” value was 0.563.

With “mG*mG*mU*A*T*C*C*C*C*C*C*C*C*C*C*C*C*C*C*C (GGUATCCCCCCCCCCCCCCC; antisense; sugars from the 5' end m3 d17, all phosphorothioate, methylation of C not given here) [[C2]Mut1-dC]”, for the setting “THP-1”, the “inhibition of ISD70-driven IP-10 production (in words)” value is recorded as “significantly more inhibitory than its precursor dC20”.

With “TGATGGCCTCCCATCT (antisense; LNA-modified, pattern not given here) [HPRT LNA-332 V1]”, the “cGAS 100 nM (averaged IP-10 level relative to ISD70 condition)” value came to 0.650.

For the substance “CCAAGATCAGCAGTCT (antisense; LNA-modified, pattern not given here) [CTNN2B-2341 LNA KL]”, the “cGAS 100 nM (averaged IP-10 level relative to ISD70 condition)” value came to 0.356.

For “TTCGTGGGGTCCTTTT (antisense; LNA-modified, pattern not given here) [HPRT LNA-661 V1]”, the “cGAS 100 nM (averaged IP-10 level relative to ISD70 condition)” value is given as 0.520.

For the substance “TGTGATGGCCTCCCAT (antisense; LNA-modified, pattern not given here) [HPRT LNA-334 V1]”, the “cGAS 100 nM (averaged IP-10 level relative to ISD70 condition)” value was 0.557.

Take “mC*mG*mU*T*T*C*C*C*C*C*C*C*C*C*C*C*C*C*C*C (CGUTTCCCCCCCCCCCCCCC; antisense; sugars from the 5' end m3 d17, all phosphorothioate, methylation of C not given here) [[C2]Mut1-v3-dC]”: the “inhibition of ISD70-driven IP-10 production (in words)” value (THP-1) was “lacked significant inhibitory activity”.

Consider “mG*mC*mG*mG*mU*A*T*C*C*A*T*G*T*C*C*mC*mA*mG*mG*mC (mG*mC*mG*mG*mU*dA*dT*dC*dC*dA*dT*dG*dT*dC*dC*mC*mA*mG*mG*mC; antisense) [C2-Mut1]”, for which, for the setting “THP-1”, the “IFN-β production after ISD70 transfection: reduction” value is given as “blocked”, the “inhibition of ISD70-driven IP-10 production (in words)” value was “most inhibitory sequence of ISD70 sensing” and the IC50 was found to be 0.056 µM. In addition, the IC50 (THP-1, listed as C2-Mutl) is around 0.056 µM.

Turning to “GCCATGTTTCTTCTTG (antisense; LNA-modified, pattern not given here) [MB21D1-1248 LNA KL]”, the “cGAS 100 nM (averaged IP-10 level relative to ISD70 condition)” value turned out to be 0.639.

As a reminder, the IC50 is the concentration that inhibits the measured activity by half.
